In BindingDB's records for patent US20250313563 (The Broad Institute, 2025):
“And” between values parts separate entries of the source, which are not always exact repeats. Equal entries are not always repeated.

Tests used:
[1] = biological target: Glycogen synthase kinase-3 alpha (Homo sapiens, UniProt P49840); assay: TR-FRET Assay
In short: (§1)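 Compound was preincubated 30 min in assay buffer before the kinase reaction, which was quenched with EDTA. Phosphorylation was detected by TR-FRET after adding a solution of 40 nM streptavidin-d2 and 2 nM Tb-labelled anti-pSer641 antibody.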

[2] = biological target: Glycogen synthase kinase-3 beta (Homo sapiens, UniProt P49841); assay: TR-FRET Assay
In short: as §1

Chain of Glycogen synthase kinase-3 beta (P49841 whole entry): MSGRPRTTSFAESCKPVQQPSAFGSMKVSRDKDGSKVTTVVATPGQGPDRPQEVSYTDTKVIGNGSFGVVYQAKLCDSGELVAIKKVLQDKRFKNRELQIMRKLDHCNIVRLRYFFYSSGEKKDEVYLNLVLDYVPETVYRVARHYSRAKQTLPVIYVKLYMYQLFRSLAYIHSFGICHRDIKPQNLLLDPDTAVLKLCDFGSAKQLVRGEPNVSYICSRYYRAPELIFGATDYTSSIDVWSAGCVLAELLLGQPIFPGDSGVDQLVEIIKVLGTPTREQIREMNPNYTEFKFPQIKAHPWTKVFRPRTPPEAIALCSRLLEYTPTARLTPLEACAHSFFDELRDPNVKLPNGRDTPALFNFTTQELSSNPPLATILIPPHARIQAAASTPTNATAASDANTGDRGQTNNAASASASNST
Chain of Glycogen synthase kinase-3 alpha (P49840 whole entry): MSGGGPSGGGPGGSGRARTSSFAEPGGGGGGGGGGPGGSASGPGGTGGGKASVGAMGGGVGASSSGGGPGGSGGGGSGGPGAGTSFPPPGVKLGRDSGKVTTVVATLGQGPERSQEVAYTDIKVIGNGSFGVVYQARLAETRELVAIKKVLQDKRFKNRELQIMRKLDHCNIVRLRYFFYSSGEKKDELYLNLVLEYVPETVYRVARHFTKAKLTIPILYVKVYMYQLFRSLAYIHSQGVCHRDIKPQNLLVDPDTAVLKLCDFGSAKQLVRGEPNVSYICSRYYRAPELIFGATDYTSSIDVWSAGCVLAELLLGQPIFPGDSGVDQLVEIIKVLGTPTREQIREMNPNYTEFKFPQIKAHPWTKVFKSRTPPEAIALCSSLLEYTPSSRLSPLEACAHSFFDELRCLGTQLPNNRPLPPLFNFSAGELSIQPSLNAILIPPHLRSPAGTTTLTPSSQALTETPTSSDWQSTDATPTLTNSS

Compound | IC50 [1] | IC50 [2]
CC1(C)CC(=O)C2=C(NC3=C(CN=N3)C23CCN(S(=O)(=O)c2ccccc2C(F)F)CC3)[C@@H]1F [US20250313563, Compound 951846] | < 100 nM | 100 to 1000 nM
CC[C@]1(c2cccc(Cl)c2)C2=C(CC(C)(C)CC2=O)NC2N=NC(C)=C21 (some centres undefined) [US20250313563, Compound 790612] | < 100 nM | < 100 nM
CC[C@@]1(c2cccc(-c3cnn(Cc4cccc(F)c4F)c3)c2)C2=CN=NC2NC2=C1C(=O)NC(C)(C)C2 (some centres undefined) [US20250313563, Compound 951840] | < 100 nM | 100 to 1000 nM
CC(C)(C)CC1N=NC2=C1[C@@](C)(c1cccc(S(=O)(=O)CC3CC3)c1)C1=C(CC(C)(C)NC1=O)N2 (some centres undefined) [US20250313563, Compound 108006] | > 5000 nM | > 5000 nM
CC1(C)CC(=O)C2=C(C1)NC1=C(CN=N1)[C@@]21CCN(S(=O)(=O)c2cccc(F)c2)C1 [US20250313563, Compound 951862] | < 100 nM | < 100 nM
CC[C@@]1(c2cccc(-c3ccncc3F)c2)C2=C(CC(C)(C)NC2=O)NC2N=NC(C(F)(F)F)=C21 (some centres undefined) [US20250313563, Compound 948777] | < 100 nM | < 100 nM
CCC1(c2cccc(-c3ccncc3F)c2)C2=C(CC(C)(C)NC2=O)NC2N=NC(C)=C21 (centres undefined) [US20250313563, Compound 945722] | < 100 nM | < 100 nM
CCC1(c2cccc(S(C)(=O)=O)c2)C2=C(CC(C)(C)NC2=O)NC2N=NC(C(F)(F)F)=C21 (centres undefined) [US20250313563, Compound 947799] | < 100 nM | < 100 nM
CC1(C)CC(=O)C2=C(C1)NC1=C(CN=N1)C21CCN(CC(F)(F)F)CC1 [US20250313563, Compound 874528] | < 100 nM | 100 to 1000 nM
CC[C@]1(c2cccc(-c3ccnc(C(F)F)c3)c2)C2=CN=NC2NC2=C1C(=O)NC(C)(C)C2 (some centres undefined) [US20250313563, Compound 949388] | 1000 to 5000 nM | > 5000 nM
Cc1nccc([C@H]2CC[C@@]3(CC2)C2=C(N=NC2)NC2=C3C(=O)CC(C)(C)C2)c1C [US20250313563, Compound 950477] | 100 to 1000 nM | 100 to 1000 nM
CCC1(c2cccc(-c3ccnn3C)c2)C2=C(CC(C)(C)CC2=O)NC2N=NC(C(F)(F)F)=C21 (centres undefined) [US20250313563, Compound 945531] | < 100 nM | < 100 nM and 100 to 1000 nM
C[C@H]1CC[C@]2(C1)C1=C(N=NC1)NC1=C2C(=O)CC(C)(C)C1 [US20250313563, Compound 897751] | < 100 nM | 100 to 1000 nM
CC[C@@]1(c2cccc(N3CCCCC3)c2)C2=CN=NC2NC2=C1C(=O)CC(C)(C)C2 (some centres undefined) [US20250313563, Compound 810369] | < 100 nM | 100 to 1000 nM
CC1(C)CC(=O)C2=C(C1)NC1=C(CN=N1)[C@]21CC[C@H](C(F)(F)F)C1 [US20250313563, Compound 952435] | < 100 nM | 100 to 1000 nM
CC[C@@]1(c2cccc(C3CC3)c2)C2=CN=NC2NC2=C1C(=O)CC(C)(C)C2 (some centres undefined) [US20250313563, Compound 811558] | 1000 to 5000 nM | > 5000 nM
CC[C@]1(c2cccc(N(C)c3ccc(F)nc3)c2)C2=CN=NC2NC2=C1C(=O)CC(C)(C)C2 (some centres undefined) [US20250313563, Compound 932647] | < 100 nM | 100 to 1000 nM
CC1(C)CC(=O)C2=C(C1)NC1=C(CN=N1)[C@@]21CC[C@H](C(F)(F)F)C1 [US20250313563, Compound 952434] | 100 to 1000 nM | 100 to 1000 nM
CC1(C)CC(=O)C2=C(C1)NC1N=NC=C1C21CCCN(C(=O)c2ccccc2)CC1 (centres undefined) [US20250313563, Compound 889577] | 1000 to 5000 nM | 1000 to 5000 nM
CCC1(c2cccc(-c3ccnc(C)c3)c2)C2=C(CC(C)(C)NC2=O)NC2N=NC(C(F)(F)F)=C21 (centres undefined) [US20250313563, Compound 947858] | < 100 nM | < 100 nM
CC[C@@]1(c2cccc(C(F)(F)F)c2)C2=C(CC(C)(C)CC2=O)NC2N=NC(Br)=C21 (some centres undefined) [US20250313563, Compound 810464] | 1000 to 5000 nM | 1000 to 5000 nM
Cc1ncc(S(=O)(=O)N2CCC3(CC2)C2=C(N=NC2)NC2=C3C(=O)CC(C)(C)C2)o1 [US20250313563, Compound 947611] | < 100 nM and 100 to 1000 nM | < 100 nM and 100 to 1000 nM
CC[C@]1(c2ccccc2)C2=C(N=NC2)NC2=C1C(=O)[C@@H]1CC[C@H]2C1 [US20250313563, Compound 791270] | 100 to 1000 nM | > 1700 nM
CC1(C)CC(=O)C2=C(C1)NC1=C(CN=N1)C21CCCNCC1 (centres undefined) [US20250313563, Compound 889571] | > 5000 nM | > 5000 nM
CC[C@]1(c2cccc(-c3ccnc4c3cnn4C)c2)C2=CN=NC2NC2=C1C(=O)NC(C)(C)C2 (some centres undefined) [US20250313563, Compound 948817] | > 5000 nM | > 5000 nM
CCC1(c2cccc(-c3ccncc3)c2)C2=CN=NC2NC2=C1C(=O)CC(C)(C)C2 (centres undefined) [US20250313563, Compound 791271] | < 100 nM | 100 to 1000 nM

Compound | IC50 [1] | IC50 [2]
CC[C@]1(c2cccc(-c3ccncc3Cl)c2)C2=CN=NC2NC2=C1C(=O)NC(C)(C)C2 (some centres undefined) [US20250313563, Compound 948020] | 100 to 1000 nM | 100 to 1000 nM
CCC1(c2cccc(N3CCCC3)c2)C2=CN=NC2NC2=C1C(=O)CC(C)(C)C2 (centres undefined) [US20250313563, Compound 801317] | 100 to 1000 nM | 100 to 1000 nM
CC[C@@]1(c2cccc(C(F)(F)F)c2)C2=CN=NC2NC2=C1C(=O)N[C@@H](C)C2 (some centres undefined) [US20250313563, Compound 912099] | > 5000 nM | > 5000 nM
CC1(C)CC(=O)C2=C(C1)NC1=C(C(C3CC3)N=N1)C21CN(S(=O)(=O)CC2CC2)C1 (centres undefined) [US20250313563, Compound 109152] | 100 to 1000 nM | 100 to 1000 nM
O=C1CC2(CCOC2)CC2=C1C1(CCOCC1)C1=C(N=NC1)N2 (centres undefined) [US20250313563, Compound 889573] | < 100 nM | 100 to 1000 nM
Cc1ccc(S(=O)(=O)N2CCC3(CC2)C2=C(N=NC2)NC2=C3C(=O)CC(C)(C)C2)cn1 [US20250313563, Compound 947482] | < 100 nM | < 100 nM
CC[C@@]1(c2cccc(C3=CNN4CC=CN=C34)c2)C2=CN=NC2NC2=C1C(=O)NC(C)(C)C2 (some centres undefined) [US20250313563, Compound 950830] | < 100 nM | 100 to 1000 nM
CC[C@]1(c2cccc(-c3cnn(Cc4ccc(C(F)(F)F)cc4)c3)c2)C2=CN=NC2NC2=C1C(=O)NC(C)(C)C2 (some centres undefined) [US20250313563, Compound 949511] | > 5000 nM | > 5000 nM
CC1(C)CC(=O)C2=C(C1)NC1N=NC=C1[C@@]21CCCc2ccccc21 (some centres undefined) [US20250313563, Compound 930565] | 1000 to 5000 nM | > 5000 nM
CC[C@@]1(c2cccc(-c3cnn(C)c3C)c2)C2=C(CC(C)(C)NC2=O)NC2N=NC(C)=C21 (some centres undefined) [US20250313563, Compound 945731] | < 100 nM | < 100 nM
CCC1(c2ccc(C)cc2)C2=C(CC(C)(C)CC2=O)NC2N=NC(C(F)(F)F)=C21 (centres undefined) [US20250313563, Compound 883866] | < 100 nM | < 100 nM
CCC1(c2cccc(-c3ccncc3C)c2)C2=CN=NC2NC2=C1C(=O)CC(C)(C)C2 (centres undefined) [US20250313563, Compound 913351] | < 100 nM | < 100 nM
CC1(C)CC(=O)C2=C(C1)NC1=C(CN=N1)[C@@]21COC2(CN(C(=O)Cc3ccccc3)C2)C1 [US20250313563, Compound 948037] | < 100 nM | < 100 nM
CCC1(c2cccc(C(F)(F)F)c2)C2=C(N=NC2)NC2=C1C(=O)N(Cc1ccccc1)C2C (centres undefined) [US20250313563, Compound 917162] | < 100 nM | 100 to 1000 nM
CC[C@@]1(c2cccc(-c3cc[n+](O)cc3[S@@+](C)[O-])c2)C2=CN=NC2NC2=C1C(=O)CC(C)(C)C2 (some centres undefined) [US20250313563, Compound 947571] | 100 to 1000 nM | 1000 to 5000 nM
CC[C@]1(c2cccc(N3CCOCC3)c2)C2=C(CC(C)(C)NC2=O)NC2N=NC(C(F)(F)F)=C21 (some centres undefined) [US20250313563, Compound 949000] | 100 to 1000 nM | 100 to 1000 nM
CC[C@@]1(c2cccc(-c3c(C)nnn3C)c2)C2=CN=NC2NC2=C1C(=O)CC(C)(C)C2 (some centres undefined) [US20250313563, Compound 946100] | 100 to 1000 nM | 1000 to 5000 nM
CC[C@]1(c2cccc(-c3ccncc3)c2)C2=C(CC(C)(C)CC2=O)NC2N=NC(C)=C21 (some centres undefined) [US20250313563, Compound 913054] | 100 to 1000 nM | 1000 to 5000 nM
CC[C@]1(c2cccc(C(F)(F)F)c2)C2=CN=NC2NC2=C1C(=O)N(c1cc(C)n(C)n1)CC2 (some centres undefined) [US20250313563, Compound 951939] | < 100 nM | 100 to 1000 nM
CCc1ncc(S(=O)(=O)N2CCC3(CC2)C2=C(N=NC2)NC2=C3C(=O)CC(C)(C)C2)s1 [US20250313563, Compound 947252] | < 100 nM | < 100 nM
CC1(C)CC(=O)C2=C(C1)NC1=C(CN=N1)C21CN(c2ccncn2)C1 [US20250313563, Compound 909209] | 1000 to 5000 nM | 1000 to 5000 nM
CC[C@@]1(c2cccc(-c3ccncc3)c2)C2=CN=NC2NC2=C1C(=O)CC(C)(C)[C@@H]2F (some centres undefined) [US20250313563, Compound 959344] | > 5000 nM | > 5000 nM
CC[C@]1(c2cccc(S(=O)(=O)C3CC3)c2)C2=C(CC(C)(C)NC2=O)NC2=C1C(C(F)(F)F)N=N2 (some centres undefined) [US20250313563, Compound 948771] | < 100 nM | < 100 nM and 100 to 1000 nM
CC[C@@]1(c2cccc(C(F)(F)F)c2)C2=CN=NC2NC2=C1C(=O)N(c1ccccn1)CC2 (some centres undefined) [US20250313563, Compound 949311] | 100 to 1000 nM | > 5000 nM
CC1(C)CC(=O)C2=C(C1)NC1=C(CN=N1)C21CCN(CC(F)F)CC1 [US20250313563, Compound 883962] | 100 to 1000 nM | 100 to 1000 nM
CC[C@]1(c2cccc(C(F)(F)F)c2)C2=CN=NC2NC2=C1C(=O)N(C)CC2 (some centres undefined) [US20250313563, Compound 917282] | < 100 nM | 100 to 1000 nM
